# Test results reported in patent US20220324770A1, “NITRIFICATION INHIBITORS” (The University of Melbourne, priority 2019, published 2022).
# Test system: Dahlen soil
# Experiment: Soil thin-layer chromatography (TLC) leaching study, Dahlen soil
# Type: physicochemical
# Experimental: TLC plates were prepared based on methods described in the literature (Helling, C. S., Turner, B. C, Science 1968, 162, 562-563; Mohammad, A., Jabeen, N., JPC—Journal of Planar Chromatography—Modern TLC 2003, 16, 137-143). Masking tape (3 layers, ˜[…] total thickness) was used to outline three columns (4 cm W×12 cm H) on a glass TLC plate (20×20 cm). A slurry of freshly ground soil in distilled H2O (˜2:3 m/v) was then poured onto the prepared plate and spread evenly using a glass rod. Once even, the plate was dried overnight in an oven at 35° C. Careful removal of the masking tape afforded the TLC plate ready for sample application.
# (§1) Samples of DMP (the active core of DMPP) or Compound 16 (˜1 mg) dissolved in acetone (100 μL) were pipetted in a straight line across the soil, 2 cm above the base of the plate. Application band thickness was kept under 0.5 cm. After 30 mins of drying time, the TLC plate was developed inside a glass developing chamber with distilled H2O (depth of 0.5 cm) until the solvent front reached the top of the soil (˜1 hr). […] The plate was then allowed to air dry overnight.
# Once dry, the plate was divided into six horizontal bands corresponding to Rf values of: (1) <0.05 (baseline), (2) 0.05 to 0.25, (3) 0.25 to 0.45, (4) 0.45 to 0.65, (5) 0.65 to 0.85, and (6) 0.85 to 1. In sequence, soil in each band was carefully scraped off the glass backing and collected in vials. Special care was taken to avoid cross-contamination between soil of different bands, and the separate channels.
# Individual soil bands collected from the TLC plate were extracted as follows: • 1. Addition of an aqueous solution of CaCl2/MgSO4 (0.01M and 0.45M respectively, 2 mL). • 2. Sonication for 5 minutes then manual shaking for 30 seconds. • 3. Addition of methyl-tert-butyl ether (MTBE, 2 mL) then manual shaking for 30 seconds. • 4. Sonication for 10 minutes then manual shaking for 30 seconds. • 5. Rested until soil began to settle, then frozen overnight at −20° C. • 6. After partial defrosting, the ethereal extract was filtered through nylon syringe filters (FilterBio®, 13 mm diameter, 0.45 µm pore size).
# The filtered ethereal extracts (450 μL) were spiked with 50 μL of a standard solution of either cyclododecanone in MTBE (1.97 mg/mL, for DMP-treated samples) or cyclooctanone in MTBE (6.37 mg/mL, for 16-treated samples). Samples were then directly analysed by GC-MS (method: 70° C. for 5 mins, then ramp 10° C./min to 250° C., hold at 250° C. for 17 mins [total run time=40 minutes]) to analyse the presence or absence of the inhibitor in each soil band.
# GC-MS peak areas calculated for the standards cyclooctanone (Rt=9.1 mins) and cyclododecanone (Rt=15.8 mins) were compared to those calculated for Compound 16 (Rt=13.9 mins) and DMP (Rt=7.6 mins) respectively, for each soil sample extract where inhibitor was detected as follows:
# As each treatment was run in triplicate, mean values are reported for detected inhibitor percentages for each Rf band, with errors presented as the standard deviation.
# as §1, with “the DCD” for “DMP (the active core of DMPP) or Compound 16”, “methanol (300” for “acetone (100”, “in” for “with”
# Individual soil bands collected from the TLC plate were extracted as follows: • 1. Addition of methanol (2 mL). • 2. Manual shaking for 30 seconds following sonication for 15 minutes. • 3. Once soil began to settle, the methanolic extract was filtered through nylon syringe filters (FilterBio®, 13 mm diameter, 0.45 µm pore size). • 4. 300 μL of the methanolic extracts were evaporated under nitrogen flow, and then the residues was taken up in ultrapure acetonitrile (1 mL). • 5. […]
smiles,measurement,setting,value
"CCCc1cn(CCC)nn1 [Compound 16, 1,4-dipropyl-1H-1,2,3-triazole]",Rf range in which the majority of the inhibitor was detected,Dahlen soil TLC,0.25-0.45
same,Detected Inhibitor (%),"Dahlen soil TLC, Rf 0.05-0.25",3 ± 4%
same,Detected Inhibitor (%),"Dahlen soil TLC, Rf 0.25-0.45",58 ± 14%
same,Detected Inhibitor (%),"Dahlen soil TLC, Rf 0.45-0.65",38 ± 16%
same,Detected Inhibitor (%),"Dahlen soil TLC, Rf 0.65-0.85",1 ± 1%
same,mobility in soil TLC,neutral Dahlen soil,reduced mobility compared to DMP
same,leachability (conclusion),neutral soils,lower leachability than DMP and DCD
